# In article PMC11791975, “Highly Sensitive In Vivo Imaging of Bacterial Infections with a Hydrophilicity‐Switching, Self‐Immobilizing, Near‐Infrared Fluorogenic β‐Lactamase Probe Enriched within Bacteria” (Advanced Science, 2024):
# What was measured:
# [1] = target: T1, New Delhi metallo β lactamase-1 (NDM-1 bla) (Klebsiella pneumoniae, UniProt C7C422); test: in vitro β-lactamase inhibition assay (IC50, Figure S29; also cites ref […]); format: biochemical
# T1 construct: gene blaNDM-1
# [2] = target: TEM-1 β-lactamase (TEM-1 bla) (Escherichia coli, UniProt P62593); test: biochemical; parameters: beta-lactamase inhibition, fluorogenic substrate CDC-1 hydrolysis, initial velocity, 10 min preincubation; conditions: read-out: IC50 (μM) ebselen TEM-1
# Sequence of TEM-1 β-lactamase (TEM-1 bla) (P62593 24-286 limits assumed): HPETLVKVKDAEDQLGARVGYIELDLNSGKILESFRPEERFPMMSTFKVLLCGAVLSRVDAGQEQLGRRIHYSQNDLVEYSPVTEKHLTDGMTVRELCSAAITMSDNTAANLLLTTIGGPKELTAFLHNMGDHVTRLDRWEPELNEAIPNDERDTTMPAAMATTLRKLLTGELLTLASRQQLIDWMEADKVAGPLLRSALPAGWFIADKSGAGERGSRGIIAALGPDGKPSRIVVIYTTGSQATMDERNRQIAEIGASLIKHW
# Method: (§1) 36 and imaged with an Odyssey SA near-infrared two-color laser imaging system, followed by staining with Coomassie brilliant blue. Assay for IC50 of β-Lactamase Inhibitor The IC50 was determined following the reported protocol with minor modifications. […] The initial velocity (V0) was calculated using the linear portions of the curves. Each experiment was triplicated. The IC50 was obtained by fitting a dose-response curve using Graph Pad Prism 7 software.
# [3] = target: T1, New Delhi metallo β lactamase-1 (NDM-1 bla); test: biochemical; parameters: beta-lactamase inhibition, fluorogenic substrate CDC-1 hydrolysis, initial velocity, 10 min preincubation
# Method: as §1
# T1 sequence (C7C422 29-270 limits assumed): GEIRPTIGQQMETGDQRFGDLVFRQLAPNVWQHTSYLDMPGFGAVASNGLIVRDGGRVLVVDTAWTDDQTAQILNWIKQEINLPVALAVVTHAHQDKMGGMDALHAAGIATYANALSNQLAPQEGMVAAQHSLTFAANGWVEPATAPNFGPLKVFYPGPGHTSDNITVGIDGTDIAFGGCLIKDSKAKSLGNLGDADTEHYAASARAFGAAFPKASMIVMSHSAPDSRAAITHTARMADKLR
SMILES,IC50 [1] [µM],IC50 [2] [µM],IC50 [3] [µM]
O=c1c2ccccc2[se]n1-c1ccccc1 [ebselen],0.508,> 25,–
NC(=O)[C@@H]1CC[C@@H]2CN1C(=O)N2OS(=O)(=O)O [avibactam],–,–,> 25
